How the values were obtained:
Assay in all cases: microbe, parasite or virus in culture
E. coli = tested on: E. coli
In short: (§1)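 MICs were scored by eye after 18-20 h static incubation at 37 °C, with bacteria at 5 × 10^5 CFU mL^−1 in MHB. Peptides were serially diluted 2-fold over 12 points, top 128 or 64 μg mL^−1. CAMHB (CLSI) and 1% agarose-MHB variants were also run, at least six replicates.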

K. pneumoniae = tested on: K. pneumoniae
In short: as §1

P. aeruginosa = tested on: P. aeruginosa
In short: as §1

Measured: MIC, broth microdilution

C[C@H]1[C@H](NC(=O)/C(=N\OC(C)(C)C(=O)O)c2csc(N)n2)C(=O)N1S(=O)(=O)O [AZT]
4, 4 µg/mL: P. aeruginosa; P. aeruginosa ATCC 27853 spontaneous mutant, AA139 selection 4X, plate 1, colony 1, drug-free passage 1 | P. aeruginosa; P. aeruginosa ATCC 27853 spontaneous mutant, AA139 selection 4X, plate 1, colony 1, drug-free passage 5 | P. aeruginosa; P. aeruginosa ATCC 27853 spontaneous mutant, AA139 selection 4X, plate 2, colony 1, drug-free passage 1 | P. aeruginosa; P. aeruginosa ATCC 27853 spontaneous mutant, AA139 selection 4X, plate 2, colony 1, drug-free passage 5 | P. aeruginosa; P. aeruginosa ATCC 27853 spontaneous mutant, AA139 selection 4X, plate 2, colony 2, drug-free passage 1 | P. aeruginosa; P. aeruginosa ATCC 27853 spontaneous mutant, AA139 selection 4X, plate 2, colony 2, drug-free passage 5 | P. aeruginosa; P. aeruginosa ATCC 27853 spontaneous mutant, AA139 selection 4X, plate 2, colony 3, drug-free passage 1 | P. aeruginosa; P. aeruginosa ATCC 27853 spontaneous mutant, AA139 selection 4X, plate 2, colony 3, drug-free passage 5 | P. aeruginosa; P. aeruginosa ATCC 27853 spontaneous mutant, AA139 selection 4X, plate 2, colony 4, drug-free passage 1 | P. aeruginosa; P. aeruginosa ATCC 27853 spontaneous mutant, AA139 selection 4X, plate 2, colony 4, drug-free passage 5 | P. aeruginosa; P. aeruginosa UNT 138-1 spontaneous mutant, AA139 selection 4X, plate 1, colony 2, drug-free passage 1 | P. aeruginosa; P. aeruginosa UNT 138-1 spontaneous mutant, AA139 selection 4X, plate 1, colony 2, drug-free passage 5 | P. aeruginosa; P. aeruginosa UNT 138-1 spontaneous mutant, AA139 selection 4X, plate 1, colony 5, drug-free passage 1 | P. aeruginosa; P. aeruginosa UNT 138-1 spontaneous mutant, AA139 selection 4X, plate 1, colony 5, drug-free passage 5 | P. aeruginosa; P. aeruginosa UNT 138-1 spontaneous mutant, AA139 selection 4X, plate 1, colony 6, drug-free passage 1 | P. aeruginosa; P. aeruginosa UNT 138-1 spontaneous mutant, AA139 selection 4X, plate 1, colony 6, drug-free passage 5 | P. aeruginosa; P. aeruginosa UNT 138-1 spontaneous mutant, AA139 selection 4X, plate 1, colony 7, drug-free passage 1 | P. aeruginosa; P. aeruginosa UNT 138-1 spontaneous mutant, AA139 selection 4X, plate 1, colony 7, drug-free passage 5 | P. aeruginosa; P. aeruginosa UNT 138-1 spontaneous mutant, AA139 selection 4X, plate 2, colony 2, drug-free passage 1 | P. aeruginosa; P. aeruginosa UNT 138-1 spontaneous mutant, AA139 selection 4X, plate 2, colony 2, drug-free passage 5 | P. aeruginosa; P. aeruginosa UNT 138-1 spontaneous mutant, AA139 selection 4X, plate 2, colony 3, drug-free passage 1 | P. aeruginosa; P. aeruginosa UNT 138-1 spontaneous mutant, AA139 selection 4X, plate 2, colony 3, drug-free passage 5 | P. aeruginosa; P. aeruginosa UNT 138-1 spontaneous mutant, AA139 selection 4X, plate 2, colony 4, drug-free passage 1 | P. aeruginosa; P. aeruginosa UNT 138-1 spontaneous mutant, AA139 selection 4X, plate 2, colony 4, drug-free passage 5 | P. aeruginosa; P. aeruginosa UNT 138-1 spontaneous mutant, AA139 selection 4X, plate 2, colony 5, drug-free passage 1 | P. aeruginosa; P. aeruginosa UNT 138-1 spontaneous mutant, AA139 selection 4X, plate 2, colony 5, drug-free passage 5 | P. aeruginosa; P. aeruginosa UNT 138-1 spontaneous mutant, AA139 selection 4X, plate 2, colony 6, drug-free passage 1 | P. aeruginosa; P. aeruginosa UNT 138-1 spontaneous mutant, AA139 selection 4X, plate 2, colony 6, drug-free passage 5 | P. aeruginosa; P. aeruginosa UNT 138-1 spontaneous mutant, AA139 selection 4X, plate 2, colony 7, drug-free passage 1 | P. aeruginosa; P. aeruginosa UNT 138-1 spontaneous mutant, AA139 selection 4X, plate 2, colony 7, drug-free passage 5 | P. aeruginosa; P. aeruginosa UNT 138-1 spontaneous mutant, AA139 selection 8X, plate 1, colony 1, drug-free passage 1 | P. aeruginosa; P. aeruginosa UNT 138-1 spontaneous mutant, AA139 selection 8X, plate 1, colony 1, drug-free passage 5 | P. aeruginosa; P. aeruginosa UNT 138-1 spontaneous mutant, AA139 selection 8X, plate 1, colony 2, drug-free passage 1 | P. aeruginosa; P. aeruginosa UNT 138-1 spontaneous mutant, AA139 selection 8X, plate 1, colony 2, drug-free passage 5 | P. aeruginosa; P. aeruginosa UNT 138-1 spontaneous mutant, AA139 selection 8X, plate 1, colony 3, drug-free passage 1 | P. aeruginosa; P. aeruginosa UNT 138-1 spontaneous mutant, AA139 selection 8X, plate 1, colony 3, drug-free passage 5 | P. aeruginosa; P. aeruginosa UNT 138-1 spontaneous mutant, AA139 selection 8X, plate 1, colony 4, drug-free passage 1 | P. aeruginosa; P. aeruginosa UNT 138-1 spontaneous mutant, AA139 selection 8X, plate 1, colony 4, drug-free passage 5
>32 µg/mL: E. coli; E. coli AUD172 parent strain not exposed to drug | K. pneumoniae; K. pneumoniae ST258 parent strain not exposed to drug
>32 , >32 µg/mL: E. coli; E. coli AUD172 spontaneous mutant, AA139 selection 4X, plate 2, colony 2, drug-free passage 1 | E. coli; E. coli AUD172 spontaneous mutant, AA139 selection 4X, plate 2, colony 2, drug-free passage 5 | K. pneumoniae; K. pneumoniae ST258 spontaneous mutant, AA139 selection 4X, plate 1, colony 1, drug-free passage 1 | K. pneumoniae; K. pneumoniae ST258 spontaneous mutant, AA139 selection 4X, plate 1, colony 1, drug-free passage 5
0.06 µg/mL: K. pneumoniae; K. pneumoniae 3010 parent strain not exposed to drug
4 µg/mL: P. aeruginosa; P. aeruginosa ATCC 27853 parent strain not exposed to drug | P. aeruginosa; P. aeruginosa ATCC 27853 spontaneous mutant, AA139 selection 4X, plate 1, colony 2, drug-free passage 5 | P. aeruginosa; P. aeruginosa ATCC 27853 spontaneous mutant, AA139 selection 4X, plate 1, colony 3, drug-free passage 1 | P. aeruginosa; P. aeruginosa ATCC 27853 spontaneous mutant, AA139 selection 4X, plate 1, colony 4, drug-free passage 5 | P. aeruginosa; P. aeruginosa ATCC 27853 spontaneous mutant, AA139 selection 4X, plate 1, colony 5, drug-free passage 5 | P. aeruginosa; P. aeruginosa ATCC 27853 spontaneous mutant, AA139 selection 4X, plate 1, colony 6, drug-free passage 5 | P. aeruginosa; P. aeruginosa ATCC 27853 spontaneous mutant, AA139 selection 8X, plate 1, colony 1, drug-free passage 5 | P. aeruginosa; P. aeruginosa UNT 138-1 parent strain not exposed to drug | P. aeruginosa; P. aeruginosa UNT 138-1 spontaneous mutant, AA139 selection 4X, plate 1, colony 1, drug-free passage 1 | P. aeruginosa; P. aeruginosa UNT 138-1 spontaneous mutant, AA139 selection 4X, plate 1, colony 3, drug-free passage 1 | P. aeruginosa; P. aeruginosa UNT 138-1 spontaneous mutant, AA139 selection 8X, plate 1, colony 5, drug-free passage 1 | P. aeruginosa; P. aeruginosa UNT 138-1 spontaneous mutant, AA139 selection 8X, plate 2, colony 1, drug-free passage 1
8 µg/mL: P. aeruginosa; P. aeruginosa ATCC 27853 spontaneous mutant, AA139 selection 4X, plate 1, colony 2, drug-free passage 1 | P. aeruginosa; P. aeruginosa ATCC 27853 spontaneous mutant, AA139 selection 4X, plate 1, colony 3, drug-free passage 5 | P. aeruginosa; P. aeruginosa ATCC 27853 spontaneous mutant, AA139 selection 4X, plate 1, colony 4, drug-free passage 1 | P. aeruginosa; P. aeruginosa ATCC 27853 spontaneous mutant, AA139 selection 4X, plate 1, colony 5, drug-free passage 1 | P. aeruginosa; P. aeruginosa ATCC 27853 spontaneous mutant, AA139 selection 4X, plate 1, colony 6, drug-free passage 1 | P. aeruginosa; P. aeruginosa ATCC 27853 spontaneous mutant, AA139 selection 8X, plate 1, colony 1, drug-free passage 1 | P. aeruginosa; P. aeruginosa UNT 138-1 spontaneous mutant, AA139 selection 4X, plate 1, colony 1, drug-free passage 5 | P. aeruginosa; P. aeruginosa UNT 138-1 spontaneous mutant, AA139 selection 4X, plate 1, colony 3, drug-free passage 5 | P. aeruginosa; P. aeruginosa UNT 138-1 spontaneous mutant, AA139 selection 8X, plate 1, colony 5, drug-free passage 5 | P. aeruginosa; P. aeruginosa UNT 138-1 spontaneous mutant, AA139 selection 8X, plate 2, colony 1, drug-free passage 5
8, 8 µg/mL: P. aeruginosa; P. aeruginosa ATCC 27853 spontaneous mutant, AA139 selection 8X, plate 1, colony 2, drug-free passage 1 | P. aeruginosa; P. aeruginosa ATCC 27853 spontaneous mutant, AA139 selection 8X, plate 1, colony 2, drug-free passage 5 | P. aeruginosa; P. aeruginosa ATCC 27853 spontaneous mutant, AA139 selection 8X, plate 1, colony 3, drug-free passage 1 | P. aeruginosa; P. aeruginosa ATCC 27853 spontaneous mutant, AA139 selection 8X, plate 1, colony 3, drug-free passage 5 | P. aeruginosa; P. aeruginosa ATCC 27853 spontaneous mutant, AA139 selection 8X, plate 1, colony 4, drug-free passage 1 | P. aeruginosa; P. aeruginosa ATCC 27853 spontaneous mutant, AA139 selection 8X, plate 1, colony 4, drug-free passage 5 | P. aeruginosa; P. aeruginosa ATCC 27853 spontaneous mutant, AA139 selection 8X, plate 1, colony 5, drug-free passage 1 | P. aeruginosa; P. aeruginosa ATCC 27853 spontaneous mutant, AA139 selection 8X, plate 1, colony 5, drug-free passage 5 | P. aeruginosa; P. aeruginosa UNT 138-1 spontaneous mutant, AA139 selection 4X, plate 1, colony 4, drug-free passage 1 | P. aeruginosa; P. aeruginosa UNT 138-1 spontaneous mutant, AA139 selection 4X, plate 1, colony 4, drug-free passage 5 | P. aeruginosa; P. aeruginosa UNT 138-1 spontaneous mutant, AA139 selection 4X, plate 2, colony 1, drug-free passage 1 | P. aeruginosa; P. aeruginosa UNT 138-1 spontaneous mutant, AA139 selection 4X, plate 2, colony 1, drug-free passage 5

From article PMC7311426, “An amphipathic peptide with antibiotic activity against multidrug-resistant Gram-negative bacteria” (Nature Communications, 2020)
